Data set [1] is described as follows: pH characteristics of triazole derivatives (fluorescence intensity vs pH). It counts as physicochemical. As to conditions: 1 μM in sodium phosphate buffers; for pKa: sodium phosphate buffers of various pH, from fluorescence intensity vs pH. How it is done:
Triazole derivatives prepared by the method disclosed in U.S. Pat. No. 5,874,590 (DAF-2T and DAF-5T, the structures thereof are shown below) and DAF-FM T were dissolved at 1 μM in sodium phosphate buffers adjusted to each of the pH values, and fluorescence intensity was measured. The excitation wavelength and fluorescence wavelength were 495-515 (nm) for DAF-2T, 505-520 (nm) for DAF-5T and 495-515 (nm) for DAF-FMT, respectively. […] As for DAF-FM T, a dissociable proton was not present in the triazole ring, and therefore the compound was not influenced by pKa and it gave a constant fluorescence intensity at pH 5.8 or higher.

Data set [2] is described as follows: Photostability under direct sunlight irradiation. It counts as physicochemical. As to conditions: 1 μM in 0.1 M sodium phosphate buffer pH 7.4, direct sunlight; versus DAF-1T, DAF-2T, DAF-4T, DAF-5T. How it is done:
Photostability of the triazole derivatives produced by the method disclosed in U.S. Pat. No. 5,874,590 (DAF-1T, DAF-2T, DAF-4T and DAF-5T, the structures thereof are shown below) and DAF-FM T was tested by direct irradiation with sunlight. The dyes were each dissolved in 0.1 M sodium phosphate buffer (pH 7.4) at a concentration of 1 μM, and the solution was put into vials and exposed to direct sunlight under fine weather for a certain period of time. Samples were collected from the solutions, and fluorescence intensity was measured and compared with respective initial values.

In data set [3] the test system is Bovine aorta endothelial cells. As to the kind of experiment: Measurement of extracellularly produced nitrogen monoxide. It counts as cell-based. The conditions noted are these: 7 μM in PBS(+), 37° C., Ex 500 nm, Em 515 nm, stimulation with A23187, control with inhibitor of nitrogen monoxide synthetase. How it is done: Bovine aorta endothelial cells were cultured, and the cells were removed with trypsin and collected by centrifugation, and then suspended in 2 ml of PBS(+) in which DAF-FM (7 μM) was dissolved. These cells were transferred to a cell for fluorescence measurement, and fluorescence intensity was measured (Ex.: 500 nm, Em.: 515 nm) at 37° C. with stirring. The cells were stimulated with a calcium ionophore A23187 during the measurement so that the cells generated nitrogen monoxide. As control experiments, an inhibitor of nitrogen monoxide synthetase was added after the above measurement, or alternatively, the measurement was performed in the presence of the inhibitor from the beginning.

Where [4] appears, read: read-out: pKa of the hydroxyl group.
Where [5] appears, read: read-out: pKa of the proton of the triazole ring.

Where two headings read alike, the source gives them in different places.

For the compound `O=C1OC2(c3ccc(O)cc3Oc3cc(O)ccc32)c2cc3nn[nH]c3cc21` [DAF-2T], the figures for the pKa in data set [1] (setting [4]) and in data set [1] (setting [5]) were 6.27 and 7.94, respectively.
For the compound `O=C1OC2(c3cc(Cl)c(O)cc3Oc3cc(O)c(Cl)cc32)c2cc3nn[nH]c3cc21` [DAF-5T], the pKa in data set [1] (setting [4]) was 4.59; in data set [1] (setting [5]), 7.41.
`Cn1nnc2c3c(ccc21)C1(OC3=O)c2cc(F)c(O)cc2Oc2cc(O)c(F)cc21` [DAF-FM T, 2″,7″-Difluoro-3″,6″-dihydroxy-spiro[1′-methyltriazolo[4′,5′:4,5]isobenzofuran-1(3H),9″-[9H]xanthen]-3-one]: the “pH at which fluorescence intensity is constant” value in data set [1] (Ex/Em 495-515 nm) was ≥ 5.8. The pKa in data set [1] (setting [4]) came out at 4.38. In addition, in data set [2], the “photostability (fluorescence intensity compared with initial value)” value is recorded as “higher photostability than the other triazole compounds”.
As for `CNc1ccc2c(c1N)C(=O)OC21c2cc(F)c(O)cc2Oc2cc(O)c(F)cc21` [DAF-FM, 4-Amino-5-(N-methylamino)-2′,7′-difluoro-3′,6′-dihydroxy-spiro[isobenzofuran-1(3H),9′-[9H]xanthen]-3-one], in data set [3], the “fluorescence intensity increase on nitrogen monoxide generation by the cells” value is given as “increase of fluorescence intensity was caused by nitrogen monoxide”.

Usually pKa stands for the negative logarithm of the acid dissociation constant.

These data come from US7618997B2, “Diaminofluorescein derivatives” (Sekisui Medical Co., Ltd., priority 2000, dated 2009).
